Results on 22 compounds are retold here after patent US20240398811A1, “PRC2 INHIBITORS FOR USE IN TREATING BLOOD DISORDERS” (ORIC Pharmaceuticals, Inc., priority 2021, published 2024).

Molecules are shown by their SMILES. Where only a bound is given, the exact number is not on record here.

purified human, His-tagged PRC2 complex, sequence (O75530 whole entry): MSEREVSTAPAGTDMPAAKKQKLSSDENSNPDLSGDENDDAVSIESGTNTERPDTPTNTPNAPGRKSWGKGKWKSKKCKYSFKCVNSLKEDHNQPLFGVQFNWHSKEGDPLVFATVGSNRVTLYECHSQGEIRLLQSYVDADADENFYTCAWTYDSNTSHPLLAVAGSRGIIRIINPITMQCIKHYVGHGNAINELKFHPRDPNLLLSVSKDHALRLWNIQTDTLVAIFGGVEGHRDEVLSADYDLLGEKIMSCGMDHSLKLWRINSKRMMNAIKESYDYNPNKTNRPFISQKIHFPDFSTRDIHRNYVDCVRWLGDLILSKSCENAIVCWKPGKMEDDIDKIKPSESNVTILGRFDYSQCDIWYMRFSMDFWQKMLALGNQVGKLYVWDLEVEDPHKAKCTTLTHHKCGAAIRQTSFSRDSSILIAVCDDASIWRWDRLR
purified human, His-tagged PRC2 complex, sequence (Q15910 whole entry partner): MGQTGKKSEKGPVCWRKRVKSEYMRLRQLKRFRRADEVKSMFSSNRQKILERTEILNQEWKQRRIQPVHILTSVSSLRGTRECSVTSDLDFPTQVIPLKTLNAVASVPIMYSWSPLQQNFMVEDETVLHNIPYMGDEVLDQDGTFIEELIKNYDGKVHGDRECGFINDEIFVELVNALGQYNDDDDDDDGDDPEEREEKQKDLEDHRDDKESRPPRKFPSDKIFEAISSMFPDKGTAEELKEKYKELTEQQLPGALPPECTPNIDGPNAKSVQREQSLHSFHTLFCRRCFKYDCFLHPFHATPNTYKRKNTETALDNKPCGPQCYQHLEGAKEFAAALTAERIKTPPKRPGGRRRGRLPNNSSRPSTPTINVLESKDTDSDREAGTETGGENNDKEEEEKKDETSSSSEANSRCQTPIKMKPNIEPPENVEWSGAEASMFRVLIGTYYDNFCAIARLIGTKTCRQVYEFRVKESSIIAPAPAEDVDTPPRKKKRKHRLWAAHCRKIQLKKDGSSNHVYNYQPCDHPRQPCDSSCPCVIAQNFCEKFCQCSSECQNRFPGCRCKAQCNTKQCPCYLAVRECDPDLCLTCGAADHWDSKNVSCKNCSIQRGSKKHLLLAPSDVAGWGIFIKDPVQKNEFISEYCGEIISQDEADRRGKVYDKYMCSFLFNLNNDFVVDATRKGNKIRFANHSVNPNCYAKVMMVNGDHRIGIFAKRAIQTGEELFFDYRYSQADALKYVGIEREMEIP
purified human, His-tagged PRC2 complex, sequence (Q15022 whole entry partner): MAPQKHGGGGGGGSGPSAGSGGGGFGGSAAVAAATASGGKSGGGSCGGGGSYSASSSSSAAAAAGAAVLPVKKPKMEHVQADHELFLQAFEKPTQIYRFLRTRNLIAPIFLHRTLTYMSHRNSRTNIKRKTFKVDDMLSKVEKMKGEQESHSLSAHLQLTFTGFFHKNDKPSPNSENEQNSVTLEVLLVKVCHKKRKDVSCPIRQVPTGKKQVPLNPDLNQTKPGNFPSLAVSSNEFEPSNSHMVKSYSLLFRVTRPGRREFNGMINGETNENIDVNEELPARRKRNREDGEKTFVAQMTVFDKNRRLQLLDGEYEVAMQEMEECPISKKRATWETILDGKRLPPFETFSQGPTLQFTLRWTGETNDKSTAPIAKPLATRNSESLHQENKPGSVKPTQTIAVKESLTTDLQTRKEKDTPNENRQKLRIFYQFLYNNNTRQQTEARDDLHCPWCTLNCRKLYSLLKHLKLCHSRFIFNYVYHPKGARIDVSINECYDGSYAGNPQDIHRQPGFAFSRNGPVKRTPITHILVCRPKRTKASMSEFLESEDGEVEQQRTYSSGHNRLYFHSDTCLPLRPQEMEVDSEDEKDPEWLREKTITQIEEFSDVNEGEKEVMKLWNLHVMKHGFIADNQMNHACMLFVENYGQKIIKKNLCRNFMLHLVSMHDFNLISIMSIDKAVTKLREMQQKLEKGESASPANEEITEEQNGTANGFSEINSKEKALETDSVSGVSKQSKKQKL
purified human, His-tagged PRC2 complex, sequence (Q6ZN18 whole entry partner): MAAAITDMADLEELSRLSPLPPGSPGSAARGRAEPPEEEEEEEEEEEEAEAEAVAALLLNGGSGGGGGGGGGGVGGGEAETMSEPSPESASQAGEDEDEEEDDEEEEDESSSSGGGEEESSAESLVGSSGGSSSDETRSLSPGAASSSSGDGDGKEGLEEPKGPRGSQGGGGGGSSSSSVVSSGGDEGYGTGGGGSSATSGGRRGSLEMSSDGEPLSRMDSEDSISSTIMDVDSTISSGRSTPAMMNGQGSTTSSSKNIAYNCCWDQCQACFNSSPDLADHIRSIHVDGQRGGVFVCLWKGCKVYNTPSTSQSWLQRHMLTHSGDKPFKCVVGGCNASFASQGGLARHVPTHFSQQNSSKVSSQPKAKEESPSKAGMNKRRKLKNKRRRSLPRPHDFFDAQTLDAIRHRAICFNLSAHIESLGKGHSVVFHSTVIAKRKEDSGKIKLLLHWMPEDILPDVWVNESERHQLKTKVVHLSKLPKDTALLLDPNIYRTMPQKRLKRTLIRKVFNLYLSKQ
purified human, His-tagged PRC2 complex, sequence (Q09028 whole entry partner): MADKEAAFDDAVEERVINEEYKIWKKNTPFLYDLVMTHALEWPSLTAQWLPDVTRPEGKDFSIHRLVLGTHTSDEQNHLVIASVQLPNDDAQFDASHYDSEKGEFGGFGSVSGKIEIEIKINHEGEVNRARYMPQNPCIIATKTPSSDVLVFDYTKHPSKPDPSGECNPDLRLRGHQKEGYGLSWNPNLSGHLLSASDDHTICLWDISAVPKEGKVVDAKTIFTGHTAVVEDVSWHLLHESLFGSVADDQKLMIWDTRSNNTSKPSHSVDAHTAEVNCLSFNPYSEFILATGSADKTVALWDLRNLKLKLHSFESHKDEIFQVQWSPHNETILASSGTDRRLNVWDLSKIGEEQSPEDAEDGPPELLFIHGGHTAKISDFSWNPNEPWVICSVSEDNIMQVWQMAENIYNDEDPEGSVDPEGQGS

The test addresses purified human, His-tagged PRC2 complex (Homo sapiens (Human), UniProt O75530). As to the kind of experiment: Hot Spot HMT assay, inhibition of PRC2 enzymatic activity. The settings on record: 10 nM PRC2 complex, 1 μM 3H-SAM, core histone H3, 10-point dose-response. It is filed as biochemical. A digest of the protocol:
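Five-subunit PRC2 complex (EZH2, EED, SUZ12, AEBP2, RbAp48; 10 nM) preincubated 20 min at 30° C with compound (top 1.0 μM) and 0.05 mg/ml core histone H3 in Tris-HCl, 1% DMSO. Started with 1 μM [3H]SAM, 1 hr at 30° C; tritiated H3 measured by filter binding and scintillation.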
The term IC50 denotes the point on the concentration scale where inhibition reaches its midpoint. A lower IC50 goes with greater potency. In the case of `CN1CCN(C(=O)c2ccc(-c3cnc(NCc4c(F)ccc5c4CCO5)n4cc(C#N)nc34)cc2)CC1` [Example 115, 5-(((5-fluoro-2,3-dihydrobenzofuran-4-yl)methyl)amino)-8-(4-(4-methylpiperazine-1-carbonyl)phenyl)imidazo[1,2-c]pyrimidine-2-carbonitrile], the IC50 was under 100 nM. The result for `N#Cc1cn2c(NCc3c(F)ccc4c3CCO4)ncc(-c3ccc(C4CC4)nc3)c2n1` [Example 116, 8-(6-cyclopropylpyridin-3-yl)-5-(((5-fluoro-2,3-dihydrobenzofuran-4-yl)methyl)amino)imidazo[1,2-c]pyrimidine-2-carbonitrile] reads under 100 nM. As for `COCCn1cc(-c2cnc(NCc3c(F)ccc4c3CCO4)n3cc(C#N)nc23)cn1` [Example 117, 5-(((5-fluoro-2,3-dihydrobenzofuran-4-yl)methyl)amino)-8-(1-(2-methoxyethyl)-1H-pyrazol-4-yl)imidazo[1,2-c]pyrimidine-2-carbonitrile], the IC50 lay in the range of 100 to 500 nM. The figure for `N#Cc1cn2c(NCc3c(F)ccc4c3CCO4)ncc(-c3cnn(C4CCCCO4)c3)c2n1` (stereo not shown) [Example 118, 5-(((5-fluoro-2,3-dihydrobenzofuran-4-yl)methyl)amino)-8-(1-(tetrahydro-2H-pyran-2-yl)-1H-pyrazol-4-yl)imidazo[1,2-c]pyrimidine-2-carbonitrile] is under 100 nM; for `CCn1cc(-c2cnc(NCc3c(F)ccc4c3CCO4)n3cc(C#N)nc23)cn1` [Example 119, 8-(1-ethyl-1H-pyrazol-4-yl)-5-(((5-fluoro-2,3-dihydrobenzofuran-4-yl)methyl)amino)imidazo[1,2-c]pyrimidine-2-carbonitrile] it is 100 to 500 nM; for `N#Cc1cn2c(NCc3c(F)ccc4c3CCO4)ncc(-c3cnn(C4CCOCC4)c3)c2n1` [Example 120, 5-(((5-fluoro-2,3-dihydrobenzofuran-4-yl)methyl)amino)-8-(1-(tetrahydro-2H-pyran-4-yl)-1H-pyrazol-4-yl)imidazo[1,2-c]pyrimidine-2-carbonitrile] it is over 500 nM. The figure for `CC(C)(O)Cn1cc(-c2cnc(NCc3c(F)ccc4c3CCO4)n3cc(C#N)nc23)cn1` [Example 121, 5-(((5-fluoro-2,3-dihydrobenzofuran-4-yl)methyl)amino)-8-(1-(2-hydroxy-2-methylpropyl)-1H-pyrazol-4-yl)imidazo[1,2-c]pyrimidine-2-carbonitrile] is under 100 nM; for `Cc1cc(-c2cnc(NCc3c(F)ccc4c3CCCO4)n3cc(C#N)nc23)n(C)n1` [Example 122, 8-(1,3-dimethyl-1H-pyrazol-5-yl)-5-(((6-fluorochroman-5-yl)methyl)amino)imidazo[1,2-c]pyrimidine-2-carbonitrile] it is over 500 nM; for `COc1cc(-c2cnc(NCc3c(F)ccc4c3CCO4)n3cc(C#N)nc23)c(F)cn1` [Example 123, 5-(((5-fluoro-2,3-dihydrobenzofuran-4-yl)methyl)amino)-8-(5-fluoro-2-methoxypyridin-4-yl)imidazo[1,2-c]pyrimidine-2-carbonitrile] it is under 100 nM.

`CCOc1ncccc1-c1cnc(NCc2c(F)ccc3c2CCO3)n2cc(C#N)nc12` [Example 124, 8-(2-ethoxypyridin-3-yl)-5-(((5-fluoro-2,3-dihydrobenzofuran-4-yl)methyl)amino)imidazo[1,2-c]pyrimidine-2-carbonitrile]: the IC50 is under 100 nM. The result for `COc1cc(-c2cnc(NCc3c(F)ccc4c3CCO4)n3cc(C#N)nc23)c(OC)cn1` [Example 125, 8-(2,5-dimethoxypyridin-4-yl)-5-(((5-fluoro-2,3-dihydrobenzofuran-4-yl)methyl)amino)imidazo[1,2-c]pyrimidine-2-carbonitrile] reads under 100 nM; that for `N#Cc1cn2c(NCc3c(F)ccc4c3CCO4)ncc(-c3ccc(C(F)(F)F)nc3)c2n1` [Example 126, 5-(((5-fluoro-2,3-dihydrobenzofuran-4-yl)methyl)amino)-8-(6-(trifluoromethyl)pyridin-3-yl)imidazo[1,2-c]pyrimidine-2-carbonitrile], 100 to 500 nM. As to `N#Cc1cn2c(NCc3c(F)ccc4c3CCO4)ncc(-c3ccc(N)nc3)c2n1` [Example 127, 8-(6-aminopyridin-3-yl)-5-(((5-fluoro-2,3-dihydrobenzofuran-4-yl)methyl)amino)imidazo[1,2-c]pyrimidine-2-carbonitrile], the IC50 was under 100 nM.

`N#Cc1ccc(-c2cnc(NCc3c(F)ccc4c3CCO4)n3cc(C#N)nc23)cn1` [Example 128, 8-(6-cyanopyridin-3-yl)-5-(((5-fluoro-2,3-dihydrobenzofuran-4-yl)methyl)amino)imidazo[1,2-c]pyrimidine-2-carbonitrile] registered an IC50 of under 100 nM. The result for `Cc1ncc(-c2cnc(NCc3c(F)ccc4c3CCO4)n3cc(C#N)nc23)cc1N` [Example 129, 8-(5-amino-6-methylpyridin-3-yl)-5-(((5-fluoro-2,3-dihydrobenzofuran-4-yl)methyl)amino)imidazo[1,2-c]pyrimidine-2-carbonitrile] reads under 100 nM; that for `COc1ncc(-c2cnc(NCc3c(F)ccc4c3CCO4)n3cc(C#N)nc23)cc1C#N` [Example 130, 8-(5-cyano-6-methoxypyridin-3-yl)-5-(((5-fluoro-2,3-dihydrobenzofuran-4-yl)methyl)amino)imidazo[1,2-c]pyrimidine-2-carbonitrile], 100 to 500 nM. Consider `CC(=O)Nc1cc(-c2cnc(NCc3c(F)ccc4c3CCO4)n3cc(C#N)nc23)ccn1` [Example 131, N-(4-(2-cyano-5-(((5-fluoro-2,3-dihydrobenzofuran-4-yl)methyl)amino)imidazo[1,2-c]pyrimidin-8-yl)pyridin-2-yl)acetamide], for which the IC50 is under 100 nM. In the case of `N#Cc1cn2c(NCc3c(F)ccc4c3CCO4)ncc(-c3cncc(C(F)(F)F)c3)c2n1` [Example 132, 5-(((5-fluoro-2,3-dihydrobenzofuran-4-yl)methyl)amino)-8-(5-(trifluoromethyl)pyridin-3-yl)imidazo[1,2-c]pyrimidine-2-carbonitrile], the IC50 was over 500 nM. `CC(C)Oc1ccc(-c2cnc(NCc3c(F)ccc4c3CCO4)n3cc(C#N)nc23)cn1` [Example 133, 5-(((5-fluoro-2,3-dihydrobenzofuran-4-yl)methyl)amino)-8-(6-isopropoxypyridin-3-yl)imidazo[1,2-c]pyrimidine-2-carbonitrile] gave an IC50 of under 100 nM. In the case of `N#Cc1cn2c(NCc3c(F)ccc4c3CCO4)ncc(-c3cnc(N)c(C(F)(F)F)c3)c2n1` [Example 134, 8-(6-amino-5-(trifluoromethyl)pyridin-3-yl)-5-(((5-fluoro-2,3-dihydrobenzofuran-4-yl)methyl)amino)imidazo[1,2-c]pyrimidine-2-carbonitrile], the IC50 was in the range of 100 to 500 nM. In turn, `N#Cc1cn2c(NCc3c(F)ccc4c3CCO4)ncc(-c3ccc(N4CCCCC4)nc3)c2n1` [Example 135, 5-(((5-fluoro-2,3-dihydrobenzofuran-4-yl)methyl)amino)-8-(6-(piperidin-1-yl)pyridin-3-yl)imidazo[1,2-c]pyrimidine-2-carbonitrile] yielded an IC50 of under 100 nM. Take `Cc1nc(N2CCN(C)CC2)ccc1-c1cnc(NCc2c(F)ccc3c2CCO3)n2cc(C#N)nc12` [Example 136, 5-(((5-fluoro-2,3-dihydrobenzofuran-4-yl)methyl)amino)-8-(2-methyl-6-(4-methylpiperazin-1-yl)pyridin-3-yl)imidazo[1,2-c]pyrimidine-2-carbonitrile]: the IC50 fell in the range of 100 to 500 nM.
